One series concerns GES-1 cells. In words: MTT cell viability, GES-1. Type of series: cell-based. The note with it: Homo sapiens, GES1, normal gastric epithelial cell line, 72 h. The method, then:
(§1) The cell viability was determined by 3-(4,5-dimethylthiazol-2-yl)-2,5-diphenyltetrazolium bromide (MTT) assay, according to the manufacturer’s instructions. 1 day before treatment, cells were seeded into 96-well plates at a concentration of 2–5 × 10^3 cells per well, followed by treatment with fresh medium containing serial dilutions of candidate compounds for 48 or 72 h, 20 μL of MTT solution (5 mg/mL in PBS) was then added to each well. After treatment, the plates were incubated at 37 °C for another 4 h. Subsequently, the MTT solution was removed and 150 μL of DMSO was added to each well for 10 min, and then the plates were shaken to dissolve the dark blue crystal (formazan), the absorbance was detected at 570 nm using a BioTek microplate reader. The data were analyzed using SPSS 20 software.

Another series concerns TE-1 cells. Briefly: MTT cell viability, TE-1. As to conditions: Homo sapiens, 72 h. Type of series: cell-based. As to the method: as §1
In series [1] the test system is MGC-803 cells. Briefly: MTT cell viability, MGC-803. As to conditions: Homo sapiens, gastric cancer cell line, 72 h. The class given is cell-based. As to the method:
as §1

The test system of series [2] is HGC-27 cells. Briefly: MTT cell viability, HGC-27. As to conditions: Homo sapiens, gastric cancer cell line, 72 h. The class given is cell-based. As to the method: as §1
The next series has as its system SGC-7901 cells. Briefly: MTT cell viability, SGC-7901. Type of series: cell-based. The note with it: Homo sapiens, gastric cancer cell line, 72 h. As to the method: as §1
The subject of the next series is pc9 cells. In words: MTT cell viability, pc9. The class given is cell-based. As to conditions: Homo sapiens, PC-9, 72 h. The method, then:
as §1

The test system of series [3] is HGC-27 cells. Briefly: Colony formation assay, HGC-27. The class given is cell-based, human. The note with it: HGC-27, 7 days treatment, compared with DMSO or MI-929. The method, then: The day before treatment, cells were seeded into six-well plates at a concentration of 1 × 10^3 cells per well, and then the media were replaced with fresh media containing serial concentrations of candidate compounds. After 7 days of treatment, the cells were fixed with 75% ethanol, stained with 0.1% crystal violet solution and captured by the microscopy (Leica). After that, the crystal violet crystals were dissolved by adding methanol. The absorbance at 595 nm was measured by a BioTek micro plate reader. In the end, the data were analyzed using the GraphPad Prism 5 software.

Series [4] deals with MGC-803 cells-derived xenograft. Briefly: MGC-803 cells-derived xenograft model. The class given is in vivo, BALB/c nude mice. The arrangement: average tumor volumes in comparison with oil treatment group: scale not given here. The note with it: 40 mg/kg, gavage once a day for 25 days. The method, then: (§2) All animal experiments were conducted according to the guidelines of the Institutional Animal Care and Use Committee of Zhengzhou University. Four or five-week-old female BALB/c nude mice, weighing 18–21 g were purchased from Hunan Slack Scene of Laboratory Animal Company, LTD (Hunan, China). They received abundant food and water and were housed in a laminar flow under sterilized condition. 200 µL MGC-803 cells at the concentration of 5 × 10^7/mL were injected into the right scapular region of the mice. When most of the tumor volumes reached 100 mm^3, mice were randomly divided into oil (solvent) group and MI-743(40 mg/kg) treatment group. Then, they received gavage daily for 25 days. The body weight was weighed every 2 days and the tumor volumes were measured every 4 days. At the 25th day, the tumors were surgically removed and weighed. The tumor size was determined by vernier caliper measurements and the tumor and major organs were fixed in 4% buffered paraformaldehyde and paraffin-embedded for hematoxylin and eosin (HE) staining, immunohistochemistry (IHC) and TUNEL assay.

Series [5] concerns MGC-803 cells. In words: Alkaline comet assay, MGC-803. Type of series: cell-based, human. The note with it: MGC-803, 10 µM, 48 h, compared with DMSO. As to the method: MGC-803 and HGC-27 cells were seeded into 6-well plates(1.5 × 10^5 cells/well) and cultured overnight. For siRNA experiments, the control siRNA and MTH1 siRNA were transfected into cells. For compounds experiments, cells were treated with candidate compounds MI-743 for 48 h before collection. For the H2O2 control, cells were treated with 100 µM H2O2 for 10 min. Subsequently, cells were harvested, washed and resuspended with PBS. After counting, cells were mixed with 1.2% low melting-temperature agarose at 37 °C. The mixtures were layered onto pre-warmed glass slides, which were pre-coated with 1% agarose. After adding coverslips, slides were kept in 4 °C immediately for 10-15 min, followed by immersing in pre-chilled lysis buffer(2.5 M NaCl, 0.1 M EDTA, 10 mM Tris-HCL pH 7.7, 1% Triton X-100, 1% DMSO)for 5-8 h. Then, slides were washed three times with enzyme reaction buffer (40 mM HEPES pH 8.0, 0.1 M KCl, 0.5 mM EDTA and 0.2 mg/mL BSA) and incubated for another 45 min in pre-chilled alkaline electrophoresis buffer (50 mM NaOH, 1 mM EDTA, 1% DMSO, pH12.8). After electrophoresis for 30 min at 25 V, slides were neutralized with 0.4 M Tris-HCl pH 7.0 for 1 h and stained with 1‰ EB for 5 min. At last, images were acquired using fluorescence microscope and analysised by CometScore software.

Series [6] in a line: Body weight and organ H&E staining in xenograft mice. The class given is in vivo, BALB/c nude mice. The note with it: 40 mg/kg, gavage once a day for 25 days, vs oil group. As to the method:
as §2

Another series concerns the target MTH1 (Homo sapiens, UniProt P36639). In words: Cellular thermal shift assay (CETSA), MTH1. The class given is binding. The arrangement: endogenous in cells; host or cells: MGC-803 (human gastric cancer cell line). As to conditions: MGC-803 cells, 50 µM compound, heated 10 min from 43 to 61 °C, western blot. The method, then:
Cellular thermal shift assay (CETSA), also known as the target engagement assay was one-way to detect the intracellular interaction ability of compounds with its specific target. Firstly, cells were seeded into T75 culture flasks and cultured overnight. Then, the cells were treated with cell media containing 1‰ DMSO as blank control and candidate compounds for 3–5 h. Next, the cells were collected by centrifugation and resuspended by PBS, then the cells were aliquoted into 7 PCR tubes and heated using PCR instrument for 10 min from 43 to 61 °C. After that, cells were lysed using liquid nitrogen and three repeated cycles of freeze-thawing. Then, samples were centrifuged at 12,000 × g for 20 min at 4 °C. Supernatants were denatured at 100 °C for 10 min and kept at −20 °C until Western Blot analysis.

The IC50 is the point on the concentration scale where inhibition reaches its midpoint.

For the compound `C#CCSc1nc(NNC(N)=S)c(C#N)c(-c2ccc3oc(=O)ccc3c2)n1` [MI-743, 2-(5-cyano-6-(2-oxo-2H-chromen-6-yl)-2-(prop-2-yn-1-ylthio)pyrimidin-4-yl)hydrazine-1-carbothioamide], the IC50 with GES-1 cells came out at 25.5 ± 1.02 µM; in the series on TE-1 cells it was 12.8 ± 1.07 µM; with MGC-803 cells [1], 2.91 ± 0.46 µM; with HGC-27 cells [2], 1.14 ± 0.16 µM; with SGC-7901 cells, 10.4 ± 1.01 µM; with pc9 cells, 9.53 ± 0.98 µM. Besides, the colony formation result with HGC-27 cells [3] is “smaller and fewer colonies”. In addition, the “average tumor volumes in comparison with oil treatment group” value in series [4] is 33.54%. Besides, the “expression levels of ATMpS1981 and 8-oxo-dG in tumor tissue (immunohistochemistry)” value in [4] (vs oil group) is “sharply increased”. Moreover, in the series on MGC-803 cells [5], the comet tail moment result is “significantly elevated”. In [6], the “H&E staining of the liver, kidney, lung, heart and spleen” value is on record as “no signs of toxicity”. The mouse body weight entry in series [6] is recorded as “did not present obvious change”. The “incubation temperature until which MTH1 was stable” value on MTH1 was determined as 61 °C.
